The source made the active and inactive calls. The calls are words filed in the database; no cut-off is given here.
Tests used:
[1] = Inhibition of PDGFR at 5 uM
[2] = target: T1, Serine/threonine-protein kinase 4 (Homo sapiens) (UniProt Q13043); experiment: Inhibition of MST1 at 1 uM
T1 sequence (whole entry): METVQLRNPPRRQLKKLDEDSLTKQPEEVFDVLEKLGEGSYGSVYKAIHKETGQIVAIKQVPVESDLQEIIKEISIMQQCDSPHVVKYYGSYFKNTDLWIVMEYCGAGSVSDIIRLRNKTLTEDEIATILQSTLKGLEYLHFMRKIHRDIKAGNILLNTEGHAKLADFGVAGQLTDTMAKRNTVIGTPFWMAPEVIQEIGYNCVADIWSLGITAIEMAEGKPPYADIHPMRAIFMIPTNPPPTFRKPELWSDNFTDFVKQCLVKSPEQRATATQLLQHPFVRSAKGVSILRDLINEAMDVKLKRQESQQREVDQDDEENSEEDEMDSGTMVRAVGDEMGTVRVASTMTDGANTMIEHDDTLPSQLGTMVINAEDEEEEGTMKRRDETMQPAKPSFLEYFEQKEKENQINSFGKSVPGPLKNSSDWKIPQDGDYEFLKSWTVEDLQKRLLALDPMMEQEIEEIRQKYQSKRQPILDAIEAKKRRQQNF

[3] = target: T2, Serine/threonine-protein kinase Sgk1 (Homo sapiens) (UniProt O00141); experiment: Inhibition of SGK1 at 1 uM
T2 sequence (whole entry): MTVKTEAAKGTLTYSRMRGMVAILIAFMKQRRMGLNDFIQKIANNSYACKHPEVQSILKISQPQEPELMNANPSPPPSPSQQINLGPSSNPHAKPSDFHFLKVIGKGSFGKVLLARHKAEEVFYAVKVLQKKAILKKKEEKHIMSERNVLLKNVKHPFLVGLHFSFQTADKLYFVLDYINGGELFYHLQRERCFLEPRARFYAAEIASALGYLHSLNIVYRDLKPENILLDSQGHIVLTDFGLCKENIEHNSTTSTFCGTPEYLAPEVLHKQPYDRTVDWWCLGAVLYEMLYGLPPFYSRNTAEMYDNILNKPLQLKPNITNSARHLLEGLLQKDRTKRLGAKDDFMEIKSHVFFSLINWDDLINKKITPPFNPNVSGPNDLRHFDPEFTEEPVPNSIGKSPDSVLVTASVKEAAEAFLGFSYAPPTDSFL

[4] = target: Dual specificity mitogen-activated protein kinase kinase 1 (Homo sapiens) (UniProt Q02750); experiment: Inhibition of MEK1 at 1 uM
[5] = target: Dual specificity tyrosine-phosphorylation-regulated kinase 1A (Homo sapiens) (UniProt Q13627); experiment: Inhibition of DYRK1A at 5 uM
[6] = target: Serine/threonine-protein kinase pim-2 (Homo sapiens) (UniProt Q9P1W9); experiment: Inhibition of PIM2 at 5 uM
[7] = target: T3, Inhibitor of nuclear factor kappa-B kinase subunit beta (Homo sapiens) (UniProt O14920); experiment: Inhibition of IKKbeta at 1 uM
T3 sequence (whole entry): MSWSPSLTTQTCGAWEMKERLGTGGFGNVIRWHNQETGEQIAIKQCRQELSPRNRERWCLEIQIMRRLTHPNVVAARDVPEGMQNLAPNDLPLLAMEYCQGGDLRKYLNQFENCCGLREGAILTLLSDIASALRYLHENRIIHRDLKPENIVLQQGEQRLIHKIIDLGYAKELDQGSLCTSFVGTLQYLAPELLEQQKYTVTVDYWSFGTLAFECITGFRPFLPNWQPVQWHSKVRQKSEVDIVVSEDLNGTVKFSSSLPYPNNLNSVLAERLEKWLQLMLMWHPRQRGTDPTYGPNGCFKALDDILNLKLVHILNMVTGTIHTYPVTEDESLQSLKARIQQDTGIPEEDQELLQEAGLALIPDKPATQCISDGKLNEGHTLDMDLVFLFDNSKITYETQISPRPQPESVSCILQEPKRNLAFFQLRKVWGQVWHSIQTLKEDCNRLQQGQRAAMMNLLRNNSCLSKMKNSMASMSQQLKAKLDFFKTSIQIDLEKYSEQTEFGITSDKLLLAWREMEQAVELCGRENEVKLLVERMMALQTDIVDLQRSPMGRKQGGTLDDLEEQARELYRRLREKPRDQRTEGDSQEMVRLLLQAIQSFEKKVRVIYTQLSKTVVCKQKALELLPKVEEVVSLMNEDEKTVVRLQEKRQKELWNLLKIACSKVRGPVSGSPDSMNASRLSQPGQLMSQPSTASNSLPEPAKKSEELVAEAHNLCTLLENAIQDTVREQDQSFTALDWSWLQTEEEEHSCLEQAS

[8] = target: CYP2D6 (Homo sapiens, UniProt P10635); experiment: Inhibition of CYP2D6 at 10 uM; assay type: ADME
[9] = target: Phosphatidylinositol 4,5-bisphosphate 3-kinase catalytic subunit gamma isoform (Homo sapiens, UniProt P48736); experiment: Inhibition of human PI3Kgamma by ADP accumulation based HTRF assay; conditions: read-out: Ki(app)
[10] = target: Phosphatidylinositol 4,5-bisphosphate 3-kinase catalytic subunit alpha isoform (Homo sapiens, UniProt P42336, H1047R); experiment: Inhibition of human PI3Kalpha H1047R mutant by ADP accumulation based HTRF assay; conditions: read-out: Ki(app)
[11] = target: PI3K p110 beta/p85 alpha (Homo sapiens, UniProt P42338); experiment: Inhibition of human PI3Kbeta (p110beta/p85alpha) by ADP accumulation based HTRF assay; assay type: protein-complex assay; conditions: read-out: Ki(app)
[12] = target: Phosphatidylinositol 4,5-bisphosphate 3-kinase catalytic subunit alpha isoform (Homo sapiens, UniProt P42336, E542K); experiment: Inhibition of human PI3Kalpha E542K mutant by ADP accumulation based HTRF assay; conditions: read-out: Ki(app)
[13] = target: Phosphatidylinositol 4,5-bisphosphate 3-kinase catalytic subunit alpha isoform (Homo sapiens, UniProt P42336, E545K); experiment: Inhibition of human PI3Kalpha E545K mutant by ADP accumulation based HTRF assay; conditions: read-out: Ki(app)
[14] = target: PI3-kinase p110-delta/p85-alpha (Homo sapiens, UniProt O00329); experiment: Inhibition of human PI3Kdelta (p110delta/p85alpha) by ADP accumulation based HTRF assay; assay type: protein-complex assay; conditions: read-out: Ki(app)
[15] = Oral bioavailability in BALB-C mouse; assay type: ADME, organism-based; conditions: in vivo
[16] = tested on: Mus musculus; experiment: Antitumor activity in tamoxifen-induced mouse tumor model assessed as reduction in lung [18F]FDG uptake at 50 mg/kg/day, po for 3 weeks by PET-CT method; assay type: functional, organism-based
[17] = Clearance in BALB-C mouse; assay type: ADME, organism-based; conditions: in vivo
[18] = tested on: Mus musculus; experiment: Antitumor activity in tamoxifen-induced mouse tumor model assessed as reduction in lung metabolic activity at 50 mg/kg/day, po for 3 weeks by [18F]FDG uptake based PET-CT method; assay type: functional, organism-based
[19] = tested on: Mus musculus; experiment: In-vivo inhibition of PI3Kalpha-mediated AKT Ser 473 phosphorylation in lung of tamoxifen-induced mouse tumor model at 50 mg/kg, po measured 2 to 4 hrs post dose; assay type: functional
[20] = tested on: Mus musculus; experiment: Antitumor activity in tamoxifen-induced mouse tumor model assessed as tumor growth inhibition at 50 mg/kg/day, po for 3 weeks by computed tomography; assay type: functional; conditions: 504 h, read-out: GI

Chain of Serine/threonine-protein kinase pim-2 (Homo sapiens) (Q9P1W9 whole entry, looked up): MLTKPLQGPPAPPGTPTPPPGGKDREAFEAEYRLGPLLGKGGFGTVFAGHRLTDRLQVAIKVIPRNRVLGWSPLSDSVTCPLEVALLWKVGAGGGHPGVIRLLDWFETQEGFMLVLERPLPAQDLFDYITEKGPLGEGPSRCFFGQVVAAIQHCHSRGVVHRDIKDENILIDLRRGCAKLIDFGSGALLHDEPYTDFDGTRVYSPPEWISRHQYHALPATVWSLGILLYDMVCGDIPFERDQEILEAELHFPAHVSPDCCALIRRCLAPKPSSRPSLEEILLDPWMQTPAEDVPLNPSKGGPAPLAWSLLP
Chain of CYP2D6 (P10635 whole entry, canonical isoform): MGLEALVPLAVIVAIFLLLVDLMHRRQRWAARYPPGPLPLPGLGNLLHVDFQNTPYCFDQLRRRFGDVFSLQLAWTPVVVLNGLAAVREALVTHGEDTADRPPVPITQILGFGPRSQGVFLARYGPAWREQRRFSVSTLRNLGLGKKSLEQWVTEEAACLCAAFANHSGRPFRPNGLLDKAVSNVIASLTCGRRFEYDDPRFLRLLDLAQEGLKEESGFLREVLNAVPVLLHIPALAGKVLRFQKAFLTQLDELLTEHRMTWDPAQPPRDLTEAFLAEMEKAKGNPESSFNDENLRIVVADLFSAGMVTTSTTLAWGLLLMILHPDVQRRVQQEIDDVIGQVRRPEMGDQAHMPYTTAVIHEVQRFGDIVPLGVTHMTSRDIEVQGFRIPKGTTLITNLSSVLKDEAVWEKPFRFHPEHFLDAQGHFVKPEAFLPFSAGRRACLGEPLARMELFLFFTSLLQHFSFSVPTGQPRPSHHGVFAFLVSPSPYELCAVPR
Chain of Dual specificity mitogen-activated protein kinase kinase 1 (Homo sapiens) (Q02750 whole entry): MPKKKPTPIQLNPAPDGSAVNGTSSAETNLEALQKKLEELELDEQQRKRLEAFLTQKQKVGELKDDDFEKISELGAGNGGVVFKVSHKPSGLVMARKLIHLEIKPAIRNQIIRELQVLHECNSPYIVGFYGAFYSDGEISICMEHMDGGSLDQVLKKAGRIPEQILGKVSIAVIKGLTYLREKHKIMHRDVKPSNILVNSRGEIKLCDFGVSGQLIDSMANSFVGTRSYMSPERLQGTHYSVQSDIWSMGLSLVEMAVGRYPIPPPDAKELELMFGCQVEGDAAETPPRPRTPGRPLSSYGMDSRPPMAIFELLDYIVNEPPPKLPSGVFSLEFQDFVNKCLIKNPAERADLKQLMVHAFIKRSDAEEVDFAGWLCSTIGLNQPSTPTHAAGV
Chain of Phosphatidylinositol 4,5-bisphosphate 3-kinase catalytic subunit gamma isoform (P48736 whole entry, canonical isoform): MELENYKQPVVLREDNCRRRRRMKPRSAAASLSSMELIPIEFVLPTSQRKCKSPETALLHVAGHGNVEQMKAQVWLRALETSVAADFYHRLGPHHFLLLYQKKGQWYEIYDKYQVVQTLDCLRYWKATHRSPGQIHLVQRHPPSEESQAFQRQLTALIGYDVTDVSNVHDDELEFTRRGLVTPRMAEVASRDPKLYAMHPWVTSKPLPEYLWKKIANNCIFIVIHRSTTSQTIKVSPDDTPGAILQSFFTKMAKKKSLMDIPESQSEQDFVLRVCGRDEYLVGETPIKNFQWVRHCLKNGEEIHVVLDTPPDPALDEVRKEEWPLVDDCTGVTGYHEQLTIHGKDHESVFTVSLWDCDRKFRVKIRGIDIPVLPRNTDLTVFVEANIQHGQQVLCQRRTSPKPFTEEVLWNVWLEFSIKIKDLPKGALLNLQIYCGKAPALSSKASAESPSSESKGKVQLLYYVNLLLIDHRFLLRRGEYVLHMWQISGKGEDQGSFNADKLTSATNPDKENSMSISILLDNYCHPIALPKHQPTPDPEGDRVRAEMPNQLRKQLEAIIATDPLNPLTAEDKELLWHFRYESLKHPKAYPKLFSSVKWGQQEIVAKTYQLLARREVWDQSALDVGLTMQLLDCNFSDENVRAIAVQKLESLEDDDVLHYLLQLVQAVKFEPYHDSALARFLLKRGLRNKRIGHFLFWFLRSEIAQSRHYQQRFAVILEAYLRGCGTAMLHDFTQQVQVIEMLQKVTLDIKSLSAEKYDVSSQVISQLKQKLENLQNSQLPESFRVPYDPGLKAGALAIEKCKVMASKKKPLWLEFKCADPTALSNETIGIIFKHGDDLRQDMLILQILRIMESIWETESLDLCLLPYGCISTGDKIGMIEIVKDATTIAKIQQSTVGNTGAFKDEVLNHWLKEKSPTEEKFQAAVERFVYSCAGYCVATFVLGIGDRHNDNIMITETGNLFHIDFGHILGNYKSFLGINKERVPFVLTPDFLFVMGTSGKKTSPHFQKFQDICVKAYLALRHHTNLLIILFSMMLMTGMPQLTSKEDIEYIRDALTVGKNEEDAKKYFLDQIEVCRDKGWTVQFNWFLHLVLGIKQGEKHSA
Chain of PI3K p110 beta/p85 alpha (P27986 whole entry, canonical isoform): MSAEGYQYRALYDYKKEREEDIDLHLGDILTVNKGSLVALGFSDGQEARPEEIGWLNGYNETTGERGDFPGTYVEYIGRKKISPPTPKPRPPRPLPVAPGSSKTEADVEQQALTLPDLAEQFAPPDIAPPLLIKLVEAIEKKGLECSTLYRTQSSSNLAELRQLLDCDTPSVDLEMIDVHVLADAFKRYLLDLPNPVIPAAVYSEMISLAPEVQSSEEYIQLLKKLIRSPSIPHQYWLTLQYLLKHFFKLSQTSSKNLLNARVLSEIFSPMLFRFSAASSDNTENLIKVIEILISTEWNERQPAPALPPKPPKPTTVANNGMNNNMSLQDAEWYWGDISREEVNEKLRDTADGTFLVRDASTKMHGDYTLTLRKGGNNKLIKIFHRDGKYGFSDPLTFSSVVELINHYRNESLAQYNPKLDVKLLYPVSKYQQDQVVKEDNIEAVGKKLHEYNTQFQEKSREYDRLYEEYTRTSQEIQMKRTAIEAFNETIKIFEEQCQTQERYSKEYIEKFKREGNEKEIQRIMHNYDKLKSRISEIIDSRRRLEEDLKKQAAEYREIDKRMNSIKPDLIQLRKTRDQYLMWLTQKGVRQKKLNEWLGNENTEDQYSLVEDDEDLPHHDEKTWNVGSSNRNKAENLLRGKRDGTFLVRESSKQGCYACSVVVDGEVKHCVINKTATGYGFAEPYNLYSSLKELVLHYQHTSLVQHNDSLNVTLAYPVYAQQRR
Chain of PI3K p110 beta/p85 alpha (P42338 whole entry, canonical isoform): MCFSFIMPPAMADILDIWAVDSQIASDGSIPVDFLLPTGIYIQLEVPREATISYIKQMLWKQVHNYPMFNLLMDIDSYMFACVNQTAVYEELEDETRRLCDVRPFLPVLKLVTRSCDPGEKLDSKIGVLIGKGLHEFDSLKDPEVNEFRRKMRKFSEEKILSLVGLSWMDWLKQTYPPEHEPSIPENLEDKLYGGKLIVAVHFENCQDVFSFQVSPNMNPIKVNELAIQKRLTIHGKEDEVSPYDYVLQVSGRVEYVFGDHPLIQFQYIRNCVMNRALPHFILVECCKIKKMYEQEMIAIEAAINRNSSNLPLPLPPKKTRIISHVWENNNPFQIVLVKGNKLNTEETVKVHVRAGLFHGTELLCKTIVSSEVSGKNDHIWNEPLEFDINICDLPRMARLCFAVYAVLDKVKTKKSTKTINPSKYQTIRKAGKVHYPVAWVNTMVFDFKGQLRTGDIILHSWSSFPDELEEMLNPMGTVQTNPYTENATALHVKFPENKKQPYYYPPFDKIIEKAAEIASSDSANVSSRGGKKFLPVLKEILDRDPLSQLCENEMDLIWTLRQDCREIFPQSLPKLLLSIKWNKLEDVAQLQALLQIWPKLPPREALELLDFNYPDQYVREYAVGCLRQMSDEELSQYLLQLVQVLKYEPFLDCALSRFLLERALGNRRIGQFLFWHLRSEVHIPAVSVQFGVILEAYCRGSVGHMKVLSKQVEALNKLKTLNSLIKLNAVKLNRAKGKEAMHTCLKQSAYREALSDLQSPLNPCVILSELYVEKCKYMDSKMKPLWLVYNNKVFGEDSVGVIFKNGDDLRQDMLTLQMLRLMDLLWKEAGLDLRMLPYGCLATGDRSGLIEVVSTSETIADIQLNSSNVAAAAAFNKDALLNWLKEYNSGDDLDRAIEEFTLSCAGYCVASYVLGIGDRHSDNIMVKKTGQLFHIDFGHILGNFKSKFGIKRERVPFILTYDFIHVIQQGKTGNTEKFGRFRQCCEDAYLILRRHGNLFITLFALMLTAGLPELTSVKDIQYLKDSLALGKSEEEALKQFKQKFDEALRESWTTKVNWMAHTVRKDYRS

| Compound | inhibition [1] [%] | inhibition [2] [%] | inhibition [3] [%] | inhibition [4] [%] | inhibition [5] [%] | inhibition [6] [%] | inhibition [7] [%] | inhibition at 10 µM [8] [%] | Ki [9] [nM] | Ki [10] [nM] | Ki [11] [nM] | Ki [12] [nM] | Ki [13] [nM] | Ki [14] [nM] | bioavailability [15] [%] | clearance [17] [mL/min/kg] | Activity [16] | Activity [18] | inhibition in vivo at 50 mg/kg [19] [%] | inhibition in vivo at 50 mg/kg/day [20] [%] |
| --- | --- | --- | --- | --- | --- | --- | --- | --- | --- | --- | --- | --- | --- | --- | --- | --- | --- | --- | --- | --- |
| Cc1nc(N)ncc1-c1cn2cc(CN3CCN(S(C)(=O)=O)CC3)nc2c(N2CCOCC2)n1 | < 30 | < 30 | < 30 | < 30 | < 30 | < 30 | < 30 | – | – | – | – | – | – | – | – | – | – | – | – | – |
| CS(=O)(=O)N1CCN(Cc2cn3c(Cl)c(-c4cnc(N)nc4)nc(N4CCOCC4)c3n2)CC1 | < 30 | < 30 | < 30 | < 30 | < 30 | < 30 | < 30 | < 30 | 84 | 3.07 | 212 | 2.77 | 1.73 | – | – | – | – | – | – | – |

Continued, in another order:

| inhibition [1] [%] | inhibition [2] [%] | inhibition [3] [%] | inhibition [4] [%] | inhibition [5] [%] | inhibition [6] [%] | inhibition [7] [%] | inhibition at 10 µM [8] [%] | Ki [9] [nM] | Ki [10] [nM] | Ki [11] [nM] | Ki [12] [nM] | Ki [13] [nM] | Ki [14] [nM] | bioavailability [15] [%] | clearance [17] [mL/min/kg] | Compound | Activity [16] | Activity [18] | inhibition in vivo at 50 mg/kg [19] [%] | inhibition in vivo at 50 mg/kg/day [20] [%] |
| --- | --- | --- | --- | --- | --- | --- | --- | --- | --- | --- | --- | --- | --- | --- | --- | --- | --- | --- | --- | --- |
| < 30 | < 30 | < 30 | < 30 | < 30 | < 30 | < 30 | < 30 | – | – | – | – | – | – | – | – | CS(=O)(=O)N1CCN(Cc2nc3c(N4CCOCC4)nc(-c4cnc(N)nc4)cn3c2Br)CC1 | – | – | – | – |
| < 30 | < 30 | < 30 | < 30 | < 30 | < 30 | < 30 | < 30 | 59.8 | – | 202 | – | – | 15.6 | – | – | Cc1c(CN2CCN(S(C)(=O)=O)CC2)nc2c(N3CCOCC3)nc(-c3cnc(N)nc3)cn12 | – | – | – | – |
| < 30 | < 30 | < 30 | < 30 | < 30 | < 30 | < 30 | < 30 | – | – | – | – | – | – | 90 | 10 | CS(=O)(=O)N1CCN(Cc2cn3cc(-c4cnc(N)nc4)nc(N4CCOCC4)c3n2)CC1 | Active | Active | > 50 | 51 |

Source: ChEMBL document CHEMBL2086238, “Identification of ETP-46321, a potent and orally bioavailable PI3K α, δ inhibitor” (Bioorg Med Chem Lett, 2012)
